# According to US12318365B2, “Inhibition of dipeptide repeat proteins” (ALS Therapy Development Institute, priority 2019, dated 2025):
# No end group written: not given here.
# How the values were obtained:
# NSC-34 cells [1] = experiment: Caspase-3 assay (apoptotic activity) in NSC-34 cells; type: cell-based; details: DRP 0.01-3 μM, 24 h; compared to DMSO-treated controls
# Text: Caspase-3/CPP32 Assay: The caspase-3 assay is a fluorometric assay that measures apoptotic cell death. Apoptosis is a form of “programmed” cell death, in which a certain family of proteins inside the cell triggers a cascade of chemical reactions that result in the cell killing itself. One family of proteins involved in this process is the caspase protein family. Of the caspase proteins, caspase-2, 8, 9, and 10 are known as “initiators,” those that trigger the death cascade, and caspase-3, 6, and 7 are known as “executioners,” which carry out the actual killing of the cell. In a caspase-3 assay, cells treated with test compounds are lysed, and a substrate known as DEVD-AFC is added to the lysate. If active caspase-3 enzyme is present in the lysate, it will cleave AFC from the DEVD-AFC substrate, resulting in a fluorescent signal that can be quantified using a fluorescence microtiter plate reader. Thus, the apoptotic activity of cells treated with test compounds can be quantified. Greater fluorescence readings correspond to more apoptotic cell death.
# Cells were plated in culture medium in 2 96-well plates at a density of 3.7×10^4 cells per well, and incubated overnight at 37° C., 5% CO2. The following day, immediately prior to addition of test compounds, existing culture medium was removed and replaced with staggered volumes of culture medium as in Example 1. A 10 mM stock of MS023 was thawed to room temperature and diluted as in Example 1. A 10 mM stock of GR15 (SEQ ID NO: 1) and a 10 mM stock of PR15 (SEQ ID NO: 2) were equilibrated to room temperature and diluted in warm culture medium to achieve a final concentration of 300 nM in wells.
# The following conditions were plated in triplicate. Samples were surrounded by border wells on the outside of the plate filled with sterile Phosphate-buffered saline to prevent evaporation of volume in experimental wells during incubation; • Background (Culture medium only) • Untreated/“Cells Only” (Cells in culture medium) • DMSO Control (Cells treated only with the amount of DMSO that GR- and PR-treated cells were exposed to) • GR Only (Cells treated only with 300 nM GR15) (SEQ ID NO: 1) • Cells treated with […] GR15 (SEQ ID NO: 1) and one of the following doses of MS023: 60 μM, 30 μM, 10 μM, 3 μM, 1 μM. • PR Only (Cells treated only with 300 nM PR15) (SEQ ID NO: 2) • Cells treated with 300 nM PR15 (SEQ ID NO: 2) and one of the following doses of MS023: 60 μM, 30 μM, 10 μM, 3 μM, 1 μM. • Cells treated with only one of the following doses of MS023: 60 μM, 30 μM, 10 μM, 3 μM, 1 μM. • Positive controls (Cells treated with either 5 or 16 μM PAC-1 Caspase-3 activator)
# Plates were incubated for 24 h at 37° C., 5% CO2. Cells were tested and data were analyzed using the procedure detailed in Caspase-3 assay kit instructions.
# Cells were plated in culture medium in 2 96-well plates at a density of 3.7×10^4 cells per well, and incubated overnight at 37° C., 5% CO2. The following day, immediately prior to addition of test compounds, existing culture medium was removed and replaced with staggered volumes of culture medium as in Example 1. A 10 mM stock of MS023 was thawed to room temperature and diluted in warm culture medium to achieve final concentrations of 3, 1, 0.3, 0.1, 0.03, and 0.01 μM in plate. A 10 mM stock of GR15 (SEQ ID NO: 1) and a 10 mM stock of PR15 (SEQ ID NO: 2) were equilibrated to room temperature and diluted in warm culture medium to achieve a final concentration of 3 μM in wells.
# The following conditions were plated in triplicate. […]
# NSC-34 cells [2] = experiment: BrdU ELISA (proliferation) in NSC-34 cells; type: cell-based, Mouse; details: DRP 0.01-3 μM, 24 h; compared to DMSO-treated controls
# Description: BrdU ELISA: The BrdU ELISA is an ELISA detecting cell proliferation activity. BrdU is a pyrimidine analog that, when inside the cell, can be incorporated instead of thymidine into newly synthesized strands of DNA. Just as is indicated by thymidine incorporation into DNA, BrdU incorporation into cell DNA indicates DNA synthesis activity, which is required for cell proliferation. In the BrdU ELISA, cells are treated with test compounds as well as BrdU reagent, and then incubated for 24 hours before testing. During testing, an anti-BrdU antibody detects the incorporation of BrdU into cell DNA that occurred over the 24-hour period, as a surrogate for cell proliferation activity. This anti-BrdU antibody is then labelled with a secondary antibody tagged with a colored substrate, which can be quantified spectrophotometrically. Greater absorbance readings correspond to more cell proliferation activity.
# Cells were plated in culture medium in 2 96-well plates at a density of 3.7×10^4 cells per well, and incubated overnight at 37° C., 5% CO2.
# The following conditions were plated in triplicate.
# Plates were incubated for 24 h at 37° C., 5% CO2. Cells were tested and data were analyzed using the procedure detailed in BrdU ELISA kit instructions.
# Cells were plated in culture medium in 2 96-well plates at a density of 5×10^4 cells per well, and incubated overnight at 37° C., 5% CO2. […] 10 μL of each concentration would be added to 100 μL base media in plate to achieve final concentrations of 3, 1, 0.3, 0.1, 0.03, and 0.01 μM DRP.
# The following conditions were plated in triplicate. Samples were surrounded by border wells on the outside of the plate filled with sterile Phosphate-buffered saline to prevent evaporation of volume in experimental wells during incubation; • Culture medium only • Background (Cells only in culture medium, without BrdU reagent) • Untreated (Cells only in culture medium, with BrdU reagent) • DMSO Controls (Cells treated with BrdU reagent and the amount of DMSO that DRP-treated cells were exposed to at each concentration) • i. The DMSO controls tested were as follows, corresponding to DRP doses starting at the highest (3 μM to the lowest 0.01 μM), and were diluted in culture medium: • 1. 0.03% DMSO • 2. 0.01% DMSO • 3. 0.003% DMSO • 4. 0.001% DMSO • 5. 0.0003% DMSO • 6.
Sequence,DRP-induced apoptotic activity (NSC-34 cells [1]),effect of DRP on proliferation activity (NSC-34 cells [2])
GPGPGPGPGPGPGPGPGPGPGPGPGPGPGP [GP15],producing less robust levels of apoptotic activity,did not significantly impact proliferation activity
PAPAPAPAPAPAPAPAPAPAPAPAPAPAPA [PA15],producing less robust levels of apoptotic activity,did not significantly impact proliferation activity
